These are literature values, as cited in US4340609A, “Amidinourea derivative veterinary compositions for suppression of parasitemia” (William H. Rorer, Inc., priority 1980, dated 1982).

The test system of the data set is Babesis caballi, or B. equi. Particulars: horses; reported; cited from earlier work.
Regarding `C[n+]1cccc2cc(NC(=O)Nc3ccc4c(ccc[n+]4C)c3)ccc21` [acaprin], the “effect on equine piroplasmosis parasites” value was “only to reduce the number of parasites”.

As to `N=C(N)c1ccc(N=NNc2ccc(C(=N)N)cc2)cc1` [birenil], the “effect on equine piroplasmosis parasites” value is listed as “only to reduce the number of parasites”.

As to acriflavin, the “effect on equine piroplasmosis parasites” value is “only to reduce the number of parasites”.
